Test results as given in article PMC4510645, “Discovery of intramolecular trans-sialidases in human gut microbiota suggests novel mechanisms of mucosal adaptation” (Nature Communications, 2015).
“And” between values parts separate entries of the source, which are not always exact repeats. Equal entries are not always repeated. Where two headings read alike, the source gives them in different places.

Key:
RgNanH [1] = biological target: T1, RgNanH (Mediterraneibacter gnavus (Ruminococcus gnavus), UniProt A7B557); test: Inhibition of RgNanH activity against 4MU-Neu5Ac by neuraminidase inhibitors; type: biochemical, Ruminococcus gnavus ATCC 29149; settings: for LogIC50 / IC50: 4MU-Neu5Ac 0.51 mM, pre-incubated 15 min at 37 °C, pH 6.5
T1 sequence (A7B557 26-723): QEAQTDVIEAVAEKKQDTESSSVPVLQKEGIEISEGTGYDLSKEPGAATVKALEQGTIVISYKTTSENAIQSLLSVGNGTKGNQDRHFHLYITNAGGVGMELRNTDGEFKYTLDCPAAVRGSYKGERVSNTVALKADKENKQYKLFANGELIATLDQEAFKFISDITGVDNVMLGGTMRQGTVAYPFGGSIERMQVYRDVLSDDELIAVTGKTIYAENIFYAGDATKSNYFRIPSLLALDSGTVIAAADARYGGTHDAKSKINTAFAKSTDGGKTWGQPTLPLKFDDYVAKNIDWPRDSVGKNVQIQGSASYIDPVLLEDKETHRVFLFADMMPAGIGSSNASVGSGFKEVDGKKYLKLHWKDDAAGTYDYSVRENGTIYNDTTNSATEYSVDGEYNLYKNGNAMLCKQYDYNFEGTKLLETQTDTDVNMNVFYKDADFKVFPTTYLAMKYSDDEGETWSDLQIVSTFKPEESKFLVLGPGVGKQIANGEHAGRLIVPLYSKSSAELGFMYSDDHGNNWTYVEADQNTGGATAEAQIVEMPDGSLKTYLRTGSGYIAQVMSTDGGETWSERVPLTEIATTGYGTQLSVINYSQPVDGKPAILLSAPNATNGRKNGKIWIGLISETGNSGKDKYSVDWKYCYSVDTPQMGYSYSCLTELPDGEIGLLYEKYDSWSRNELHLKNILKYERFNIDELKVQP
Protocol: Figure 1 Kinetic analysis of the hydrolysis of sialylated substrates by RgNanH in presence or absence of inhibitors. Substrate (a) 4MU-Neu5Ac or (b) PNP-Neu5Ac was incubated with RgNanH ([…] and 0.43 nM, respectively) at 37 °C, pH 6.5 and the release of product measured using a plate reader. (c) Inhibition of RgNanH (1.00 nM) incubated with 4MU-Neu5Ac (0.51 mM) by zanamivir (●), Neu5Ac2en (▪), siastatin B (▴) and OC (♦), the rates are normalized to a % of the uninhibited rate. [I] is the inhibitor concentration. (d) 3′SL was incubated with RgNanH (2.25 nM) and the release of product measured by HPAEC-PAD. Experiments were done at least in duplicate (usually triplicate) and the error bars show the s.e.m.
The purified enzymes were incubated with the substrate in buffer made from 20 mM Na2HPO4 and 20 mM NaH2PO4 adjusted to pH 6.5 containing 1 mg ml^−1 BSA at 37 °C unless otherwise stated. For 4MU-Neu5Ac, the progression of the reaction was monitored by the release of the MU using a 96-well plate reader (BMG Labtech, Ortenberg, Germany) using fluorescence with an excitation at 340 nm and an emission at 420 nm. For determining the optimal temperature, the assay was carried out in 20 mM PBS at pH 7.4. For determining the optimal pH, the assay was carried out at 37 °C using buffer made from 20 mM Na2HPO4 and 20 mM NaH2PO4 in varying proportions to obtain the desired pH. PNP release from PNP-Neu5Ac was monitored in a similar way measuring absorbance at 405 nm every 60 s. For 3′SL, the reaction was monitored by HPAEC-PAD. An aliquot of the reaction was removed from the main reaction volume at the reaction stopped by boiling for 20 min, the enzyme was then removed by centrifugation at 17,000g for 10 min and filtration with a 0.2-μm filter (Millipore, Billerica, USA). The sugars were separated by HPAEC with an isocratic gradient of 100 mM NaOH and 100 mM NaAC at 1 ml min^−1 on a CarboPac PA1 protected with a guard column and detected using PAD on a Dionex ICS5000 system (Thermo Scientific, Hemel Hempstead, UK). The column was cleaned with 10 ml of 500 mM NaOH and 500 mM NaAc, and the column was re-equilibrated with 100 mM NaOH and 100 mM NaAc. An internal standard of fucose was used to quantify the results. […]

[2] = tested on: AkmNan0625 and AkmNan1835; test: Specificity against sialyl-oligosaccharides, HPAEC-PAD (control sialidases); type: biochemical, Akkermansia muciniphila; parameters: key to Activity AkmNan0625 and AkmNan1835: +: Activity was defined as disappearance of the substrate peak and appearance of a lower-molecular weight peak, which could correspond to the desialylated substrate; settings: substrate 1 mM, 1 nM enzyme, 37 °C, pH 6.5, overnight
Protocol: (§1) Figure 2 Specificity of RgNanH towards sialylated oligosaccharides. The enzymes were incubated with sialylated substrates at 37 °C, pH 6.5, overnight and the reaction products were analysed by HPAEC-PAD. Control reactions without enzyme were also performed. The injection peak is marked (inj). Glycerol (gly) was also present in AkmNan0625. (a) Standards (Lac, Neu5Ac, 3′SL and 6′SL), (b) 3′SL, (c) 6′SL and (d) 3'-α-sialyl-N-acetyllactosamine (3′SLacNAc). AkmNan1835 has a similar profile to […].
All chemicals were obtained from Sigma (St Louis, USA) unless otherwise stated. The A. muciniphila sialidases, termed here AkmNan0625 and AkmNan1835, were obtained by His-Tag overexpression of their genes (Amuc_0625 and Amuc_1835, respectively)[56] in E. coli BL21(DE3) and subsequent purification to homogeneity by immobilized metal affinity chromatography as described below. The sialylated oligosaccharides and OC were obtained from Carbosynth (Berks, UK).
(§2) The purified enzymes were incubated with the substrate in buffer made from 20 mM Na2HPO4 and 20 mM NaH2PO4 adjusted to pH 6.5 containing 1 mg ml^−1 BSA at 37 °C unless otherwise stated. For 4MU-Neu5Ac, the progression of the reaction was monitored by the release of the MU using a 96-well plate reader (BMG Labtech, Ortenberg, Germany) using fluorescence with an excitation at 340 nm and an emission at 420 nm. For determining the optimal temperature, the assay was carried out in 20 mM PBS at pH 7.4. For determining the optimal pH, the assay was carried out at 37 °C using buffer made from 20 mM Na2HPO4 and 20 mM NaH2PO4 in varying proportions to obtain the desired pH. PNP release from PNP-Neu5Ac was monitored in a similar way measuring absorbance at 405 nm every 60 s. For 3′SL, the reaction was monitored by HPAEC-PAD. An aliquot of the reaction was removed from the main reaction volume at the reaction stopped by boiling for 20 min, the enzyme was then removed by centrifugation at 17,000g for 10 min and filtration with a 0.2-μm filter (Millipore, Billerica, USA). The sugars were separated by HPAEC with an isocratic gradient of 100 mM NaOH and 100 mM NaAC at 1 ml min^−1 on a CarboPac PA1 protected with a guard column and detected using PAD on a Dionex ICS5000 system (Thermo Scientific, Hemel Hempstead, UK). The column was cleaned with 10 ml of 500 mM NaOH and 500 mM NaAc, and the column was re-equilibrated with 100 mM NaOH and 100 mM NaAc. An internal standard of fucose was used to quantify the results.
(§3) For specificity tests against sialylated oligosaccharides (1 mM) and glycoproteins (1 mg ml^−1), 1 nM of enzyme was incubated with the substrate at 37 °C, pH 6.5, overnight.

RgNanH [3] = biological target: T1, RgNanH; test: Kinetic parameters of RgNanH with sialylated substrates; type: biochemical, Ruminococcus gnavus ATCC 29149; settings: pH 6.5, 37 °C
Protocol: as §2
For 4MU-Neu5Ac and 3′SL, the rate of hydrolysis without enzyme was not significant, thus raw data were used. However, for pNP-Neu5Ac, the rate of hydrolysis without enzyme was significant, thus the rate with enzyme was corrected by the subtraction of the rate without enzyme at each concentration of substrate. For 3′SL, the rate of reaction was calculated by plotting the amount of substrate remaining over the course of >50 % of the reaction using the following equation[58]: […]
Where k is kcat/KM × enzyme concentration, t is time, [S0] and [St] are substrate concentrations at time 0 and t, respectively.
Kinetic data were obtained from at least duplicate (usually triplicate) experiments, and the kinetic parameters were calculated by fitting the initial raw data to the Michaelis–Menten equation using a nonlinear regression analysis programme (Prism 6, GraphPad, San Diego, USA), and error bars (s.e.m.) are shown.

RgNanH [4] = biological target: T1, RgNanH; test: Specificity against sialyl-oligosaccharides, HPAEC-PAD; type: biochemical, Ruminococcus gnavus ATCC 29149; parameters: key to Activity RgNanH: +: Activity was defined as disappearance of the substrate peak and appearance of a lower-molecular weight peak, which could correspond to the desialylated substrate; settings: substrate 1 mM, 1 nM enzyme, 37 °C, pH 6.5, overnight
Protocol: as §1, §2, §3

Compound	LogIC50 (RgNanH [1]; RgNanH 1.00 nM)	IC50 (RgNanH [1]; RgNanH 1.00 nM, read-out: IC50)	Activity AkmNan0625 and AkmNan1835 [2]	Activity RgNanH (RgNanH [4])	other results
CC(=O)N[C@H]1[C@H]([C@H](O)[C@H](O)CO)OC(C(=O)O)=C[C@@H]1O [Neu5Ac2en, 2-deoxy-2,3-didehydro-D-N-acetylneuraminic acid]	0.15±0.04	1400 µM and 1410 µM	–	–	–
CC(=O)N[C@H]1NC[C@H](C(=O)O)[C@H](O)[C@@H]1O [Siastatin B]	−2.31±0.02	4.87 µM	–	–	–
Neu5Ac-α-2-6-Gal-β-1-4-GlcNAc [6′-α-Sialyl-N-acetyllactosamine]	–	–	+	–	–
CCC(CC)O[C@@H]1C=C(C(=O)O)C[C@H](N)[C@H]1NC(C)=O [Oseltamivir carboxylate]	−1.53±0.02	29.6 µM	–	–	improvement in inhibition of RgNanH (RgNanH [1]; compared with Neu5Ac2en (IC50: 1.4 mM to 30 μM)): ~50 fold
CC(=O)N[C@@H]1[C@@H](O)C[C@](Oc2ccc3c(C)cc(=O)oc3c2)(C(=O)O)O[C@H]1C(O)[C@H](O)CO (stereo partly drawn) [4MU-Neu5Ac, 2′-(4-methylumbelliferyl)-α-D-N-acetylneuraminic acid]	–	–	–	–	Ki (RgNanH [3]; substrate inhibition, s.e.m.): 2370 ± 650 µM; kcat (RgNanH [3]; substrate of RgNanH): 6210 min⁻¹; Km (RgNanH [3]; substrate of RgNanH, s.e.m.): 590 ± 170 µM; Vmax (RgNanH [3]; substrate of RgNanH, s.e.m.): 1.37 ± 0.23 µM/min
CC(=O)N[C@H]1[C@H]([C@H](O)[C@H](O)CO)OC(OC[C@H]2OC(O)[C@H](O)[C@@H](O)[C@H]2O)(C(=O)O)C[C@@H]1O (stereo partly drawn) [6′-Sialylgalactose, Neu5Ac-α-2-6-Gal]	–	–	+	–	–
CC(=O)N[C@H]1[C@H]([C@H](O)[C@H](O)CO)O[C@@](Oc2ccc([N+](=O)[O-])cc2)(C(=O)O)C[C@@H]1O [PNP-Neu5Ac, 2-O-(p-nitrophenyl)-α-D-N-acetylneuraminic acid]	–	–	–	–	kcat (RgNanH [3]; substrate of RgNanH): <152 ^* min^−1; Km (RgNanH [3]; substrate of RgNanH, s.e.m.): > 25000 µM
CC(=O)N[C@H]1[C@H]([C@H](O)[C@H](O)CO)O[C@@](O[C@H]2[C@@H](O)[C@@H](CO)O[C@@H](O[C@H]3[C@H](O[C@@H]4O[C@@H](C)[C@@H](O)[C@@H](O)[C@@H]4O)[C@@H](NC(C)=O)C(O)O[C@@H]3CO)[C@@H]2O)(C(=O)O)C[C@@H]1O (stereo partly drawn) [3′-Sialyl Lewis X, Neu5Ac-α-2-3-Gal-β-1-4-[Fuc-a-1-3]-GlcNAc]	–	–	+	+	–
CO[C@@H]1O[C@H](CO)[C@@H](O[C@@H]2O[C@H](CO)[C@H](O)[C@H](O[C@]3(C(=O)O)C[C@H](O)[C@@H](NC(C)=O)[C@H]([C@H](O)[C@H](O)CO)O3)[C@H]2O)[C@H](O[C@@H]2O[C@@H](C)[C@@H](O)[C@@H](O)[C@@H]2O)[C@H]1NC(C)=O [3′-Sialyl Lewis X methyl glycoside, Neu5Ac-α-2-3-Gal-β-1-4-[Fuc-a-1-3]-GlcNAc-β-OMe]	–	–	+	+	–
Neu5Ac-α-2-3-Gal-β-1-4-GlcNAc [3′-α-Sialyl-N-acetyllactosamine]	–	–	+	+	–
CC(=O)N[C@H]1[C@H]([C@H](O)[C@H](O)CO)O[C@@](O[C@H]2[C@@H](O)[C@@H](CO)O[C@@H](O[C@H]3[C@H](O[C@@H]4O[C@@H](C)[C@@H](O)[C@@H](O)[C@@H]4O)[C@@H](O)C(O)O[C@@H]3CO)[C@@H]2O)(C(=O)O)C[C@@H]1O (stereo partly drawn) [3′-Sialyl-3-fucosyllactose, Neu5Ac-α-2-3-Gal-β1-4-[Fuc-α-1-3]-Glc]	–	–	+	+	–
CC(=O)N[C@H]1[C@H]([C@H](O)[C@H](O)CO)OC(C(=O)O)=C[C@@H]1N=C(N)N [Zanamivir, 4-guanidino-Neu5Ac2en]	1.08±0.07	11900 µM	–	–	IC50 (RgNanH [1]; IC50, RgNanH 1.00 nM): ~12000 µM
CC(=O)NC1C(O)CC(OC2C(O)C(O)OC(CO)C2O)(C(=O)O)OC1C(O)C(O)CO (stereo not drawn) [3′-Sialylgalactose, Neu5Ac-α-2-3-Gal]	–	–	+	+	–
